{"source": "patent US20260078089A1", "about": "“BIOACTIVE PHYTOCHEMICALS IN ZIZYPHUS AND GUARANA” (Phytoquest Limited, priority 2018, published 2026)", "key": {"male ddy mouse": {"test_system": "male ddy mouse", "assay": "Sucrose loading test, blood glucose in mice", "assay_type": "in vivo", "conditions": "oral sucrose 2.5 g/kg, test sample 500 mg/kg body weight, mean n = 5", "description": "The animal experimental protocols in this study were approved by the Animal Experiments Committee of the University of Toyama (S-2010 UH-2). Male ddy mice (29-33 g) after an overnight fast were used for acute disaccharide loading tests. Maltose (2.5 g/kg body weight) or Sucrose (2.5 g/kg body weight) as well as the test samples were dissolved in 0.9% NaCl solution and administered to mice via a stomach tube. A control group was loaded with saline only.\nBlood samples for glucose measurements were obtained from the tail vein at 0, 15, 30, 60, and 120 min after disaccharide-loading. The blood glucose levels were measured by a portable kit, Antsence II™ (Sankyo Co. Ltd. Tokyo, Japan). The Zizyphus extract HS0810/142/41 as well as the purified compounds were tested in this way."}, "[1]": {"test_system": "sialidase (NanH from T. forsythia)", "assay": "Sialidase assay with MUNANA substrate", "assay_type": "biochemical, Tannerella forsythia", "conditions": "1 mM inhibitor, 2.5 nM sialidase, 0.1 mM MUNANA, pH 7.2", "description": "(§1) Sialidase assays used 1 mM inhibitor (or water without inhibitor) and 2.5 nM sialidase (including NanH from T. forsythia) incubated in the presence of 0.1 mM methylumbeliferyl-N-acetylneuraminic acid, pH 7.2 in 20 mM sodium phosphate buffer. Reactions were stopped at 30 seconds and 60 seconds via addition of ph 10.5 60 mM sodium carbonate buffer. Release of fluorogenic MU was quantified by measuring fluorescence emission at 450 nm, excitation 350 nm. Percentage sialidase activity was expressed as the change in fluorescence between 30 seconds and 60 seconds compared to that of a reaction without inhibitor. Reactions were carried out in triplicate.\nMU release can be used to quantify sialidase activity.\nas §1, with “1” for “Sialidase assays used 1”, “forsythia) was” for “forsythia)”, “MUNANA,” for “methylumbeliferyl-N-acetylneuraminic acid,”, “7.2” for “7.2 in”, “Sodium Phosphate” for “sodium phosphate”"}, "α-D-glucosidase [2]": {"biological_target": "T1, α-D-glucosidase (Oryza sativa subsp. japonica, UniProt Q653V7)", "T1 construct": "purchased Sigma Aldrich Chemicals Limited", "T1 sequence (Q653V7 34-885)": "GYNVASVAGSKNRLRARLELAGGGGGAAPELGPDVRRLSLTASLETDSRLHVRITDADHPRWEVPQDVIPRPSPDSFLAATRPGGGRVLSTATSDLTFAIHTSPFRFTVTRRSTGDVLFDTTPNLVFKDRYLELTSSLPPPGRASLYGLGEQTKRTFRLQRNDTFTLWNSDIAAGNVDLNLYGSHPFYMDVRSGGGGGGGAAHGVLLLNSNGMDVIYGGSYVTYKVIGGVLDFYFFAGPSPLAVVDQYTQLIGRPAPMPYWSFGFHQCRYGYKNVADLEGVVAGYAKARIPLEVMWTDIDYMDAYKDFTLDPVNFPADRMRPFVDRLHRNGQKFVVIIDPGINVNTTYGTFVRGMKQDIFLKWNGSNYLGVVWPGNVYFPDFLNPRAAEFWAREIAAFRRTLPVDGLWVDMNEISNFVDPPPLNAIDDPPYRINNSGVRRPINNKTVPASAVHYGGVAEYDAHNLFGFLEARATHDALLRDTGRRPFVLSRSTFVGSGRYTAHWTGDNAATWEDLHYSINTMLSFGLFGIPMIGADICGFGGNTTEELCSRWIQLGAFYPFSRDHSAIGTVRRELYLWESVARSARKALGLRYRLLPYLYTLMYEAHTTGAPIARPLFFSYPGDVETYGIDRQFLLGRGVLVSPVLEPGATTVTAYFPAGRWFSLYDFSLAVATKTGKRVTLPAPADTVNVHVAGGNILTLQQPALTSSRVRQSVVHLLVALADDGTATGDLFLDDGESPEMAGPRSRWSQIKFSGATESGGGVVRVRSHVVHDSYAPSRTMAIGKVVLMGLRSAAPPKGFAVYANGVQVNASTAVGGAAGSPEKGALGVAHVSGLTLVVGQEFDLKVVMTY", "assay": "Glycosidase assay, p-nitrophenyl substrate", "assay_type": "biochemical", "conditions": "Rice enzyme; screened at 0.14 mg mL−1 (footnote: 0.4 mM)", "description": "(§2) Glycosidase assays were conducted as described by Watson et al. (Phytochemistry 1997, 46, 255) using p-nitrophenyl-substrates (except sialidase which used methylumbeliferyl-N-acetyineuraminic acid as substrate). Assays were carried out in microtitre plates. Enzymes were assayed in 0.1 M citric acid/0.2 M di-sodium hydrogen phosphate (McIlvaine) buffers at the optimum pH for the enzyme. All assays were carried out at 20° C. All enzymes and substrates were purchased from Sigma Aldrich Chemicals Limited. The incubation mixture consisted of 10 μl of enzyme solution, 10 μl of the iminosugars solution and 50 μl of the appropriate 5 mM p-nitrophenyl substrate made up in McIlvaine buffer at the optimum pH for the enzyme. The reactions were stopped with 0.4 M glycine (pH 10.4) during the exponential phase of the reaction. Absorbances were read at 405 nm. Water was substituted for the alkaloids in the blanks. Reactions were carried out in triplicate.\n(§3) Enzyme inhibitor solutions—Compounds were dissolved in distilled water at a concentration of 1 mg mL^−1 and then screened at a concentration of 0.14 mg mL^−1 after dilution of the 1 mg mL^−1 in the assay volumes of substrates."}, "α-L-fucosidase": {"biological_target": "T2, α-L-fucosidase (Bos taurus, UniProt Q2KIM0)", "T2 construct": "purchased Sigma Aldrich Chemicals Limited", "T2 sequence (Q2KIM0 23-468)": "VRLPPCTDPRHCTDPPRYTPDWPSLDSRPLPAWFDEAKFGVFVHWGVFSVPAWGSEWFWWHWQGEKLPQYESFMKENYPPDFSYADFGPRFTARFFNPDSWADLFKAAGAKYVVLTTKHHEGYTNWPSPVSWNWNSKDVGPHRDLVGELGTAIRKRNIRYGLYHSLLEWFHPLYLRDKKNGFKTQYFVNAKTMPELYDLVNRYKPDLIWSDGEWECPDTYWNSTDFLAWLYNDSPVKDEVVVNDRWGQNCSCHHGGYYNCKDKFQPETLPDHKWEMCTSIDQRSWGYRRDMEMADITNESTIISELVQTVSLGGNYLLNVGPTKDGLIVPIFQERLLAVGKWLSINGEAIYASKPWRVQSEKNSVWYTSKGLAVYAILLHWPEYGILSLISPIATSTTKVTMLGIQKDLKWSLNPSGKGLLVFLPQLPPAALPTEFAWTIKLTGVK", "assay": "Glycosidase assay, p-nitrophenyl substrate", "assay_type": "biochemical", "conditions": "Bovine kidney enzyme; screened at 0.14 mg mL−1 (footnote: 0.4 mM)", "description": "as §2, §3"}, "Naringinase": {"test_system": "Naringinase", "assay": "Glycosidase assay, p-nitrophenyl substrate", "assay_type": "biochemical", "conditions": "Penicillium decumbens enzyme; screened at 0.14 mg mL−1 (footnote: 0.4 mM)", "description": "as §2, §3"}, "[3]": {"test_system": "N-acetyl-β-D-glucosaminidase", "assay": "Glycosidase assay, p-nitrophenyl substrate", "assay_type": "biochemical", "conditions": "screened at 0.14 mg mL−1 (footnote: 0.4 mM)", "description": "as §2, §3"}, "α-D-glucosidase [4]": {"biological_target": "T3, α-D-glucosidase (Saccharomyces cerevisiae, UniProt P53341)", "T3 construct": "purchased Sigma Aldrich Chemicals Limited", "T3 sequence (P53341 whole entry)": "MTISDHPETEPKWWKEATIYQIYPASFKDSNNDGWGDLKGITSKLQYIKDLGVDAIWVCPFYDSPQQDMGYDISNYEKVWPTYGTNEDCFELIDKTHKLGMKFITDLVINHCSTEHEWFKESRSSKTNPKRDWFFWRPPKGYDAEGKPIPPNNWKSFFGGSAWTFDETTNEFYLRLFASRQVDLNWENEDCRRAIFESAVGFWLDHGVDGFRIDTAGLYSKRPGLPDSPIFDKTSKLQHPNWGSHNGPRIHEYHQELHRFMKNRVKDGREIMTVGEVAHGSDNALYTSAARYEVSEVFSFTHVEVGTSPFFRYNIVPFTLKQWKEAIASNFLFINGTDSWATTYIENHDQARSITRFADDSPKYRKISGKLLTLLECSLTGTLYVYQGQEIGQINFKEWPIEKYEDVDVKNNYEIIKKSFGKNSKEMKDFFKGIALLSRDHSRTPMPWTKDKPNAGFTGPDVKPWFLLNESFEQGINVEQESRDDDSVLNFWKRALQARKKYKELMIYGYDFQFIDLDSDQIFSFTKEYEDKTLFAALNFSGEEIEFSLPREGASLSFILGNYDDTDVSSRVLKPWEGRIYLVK", "assay": "Glycosidase assay, p-nitrophenyl substrate", "assay_type": "biochemical", "conditions": "Saccharomyces cerevisiae enzyme; screened at 0.14 mg mL−1 (footnote: 0.4 mM); 20° C", "description": "as §2, §3"}, "α-D-galactosidase": {"biological_target": "T4, α-D-galactosidase (Coffea arabica, UniProt Q42656)", "T4 construct": "purchased Sigma Aldrich Chemicals Limited", "T4 sequence (Q42656 16-378)": "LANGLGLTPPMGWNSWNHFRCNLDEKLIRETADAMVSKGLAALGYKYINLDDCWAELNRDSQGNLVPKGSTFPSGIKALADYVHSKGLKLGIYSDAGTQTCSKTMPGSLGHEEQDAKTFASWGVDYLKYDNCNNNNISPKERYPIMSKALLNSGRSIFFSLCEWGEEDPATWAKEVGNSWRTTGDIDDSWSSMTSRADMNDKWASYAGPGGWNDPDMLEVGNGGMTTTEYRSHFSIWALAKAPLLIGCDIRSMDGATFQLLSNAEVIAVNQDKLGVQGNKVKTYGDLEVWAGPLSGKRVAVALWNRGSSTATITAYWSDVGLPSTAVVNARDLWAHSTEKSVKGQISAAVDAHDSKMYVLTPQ", "assay": "Glycosidase assay, p-nitrophenyl substrate", "assay_type": "biochemical", "conditions": "Green coffee bean enzyme; screened at 0.14 mg mL−1 (footnote: 0.4 mM)", "description": "as §2, §3"}, "β-D-glucosidase": {"test_system": "β-D-glucosidase", "assay": "Glycosidase assay, p-nitrophenyl substrate", "assay_type": "biochemical", "conditions": "Almond enzyme; screened at 0.14 mg mL−1 (footnote: 0.4 mM)", "description": "as §2, §3"}, "β-D-mannosidase": {"test_system": "β-D-mannosidase", "assay": "Glycosidase assay, p-nitrophenyl substrate", "assay_type": "biochemical", "conditions": "Cellullomonas fimi enzyme; screened at 0.14 mg mL−1 (footnote: 0.4 mM)", "description": "as §2, §3"}, "β-D-galactosidase": {"test_system": "β-D-galactosidase", "assay": "Glycosidase assay, p-nitrophenyl substrate", "assay_type": "biochemical", "conditions": "Bovine liver enzyme; screened at 0.14 mg mL−1 (footnote: 0.4 mM)", "description": "as §2, §3"}, "glucosidases": {"test_system": "glucosidases", "assay": "Glycosidase panel, glucosidases overall", "assay_type": "biochemical", "conditions": "panel of glucosidases", "description": "Glycosidase assays were conducted on Compounds 1 and 3 and an extract of Zizyphus used in the disaccharide loading mouse studies to determine if glucosidase inhibition might explain the effects on blood glucose. A panel of glycosidases were used to be sure any activity found was a selective inhibition and not just non-specific binding to the enzyme.\nas §2, with “triplicate. […]” for “triplicate.”"}}}
{"smiles": "OC[C@H]1N[C@H](CO)[C@@H](O)[C@@H]1O", "note": "[DMDP]", "values": [{"measurement": "blood glucose", "setting": "male ddy mouse; 0 min after administration", "result": 98, "unit": "mg/dL"}, {"measurement": "blood glucose", "setting": "male ddy mouse; 15 min after administration", "result": 115, "unit": "mg/dL"}, {"measurement": "blood glucose", "setting": "male ddy mouse; 30 min after administration", "result": 100, "unit": "mg/dL"}, {"measurement": "blood glucose", "setting": "male ddy mouse; 60 min after administration", "result": 88, "unit": "mg/dL"}, {"measurement": "blood glucose", "setting": "male ddy mouse; 120 min after administration", "result": 53, "unit": "mg/dL"}, {"measurement": "% inhibition", "setting": "[1]", "result": "−2", "unit": "%"}, {"measurement": "% inhibition", "setting": "α-D-glucosidase [2]", "result": 94.59, "unit": "%"}, {"measurement": "% inhibition", "setting": "α-L-fucosidase", "result": 4.84, "unit": "%"}, {"measurement": "% inhibition", "setting": "Naringinase", "result": 2.97, "unit": "%"}, {"measurement": "% inhibition", "setting": "[3]; Bovine kidney enzyme", "result": "−7.60", "unit": "%"}, {"measurement": "% inhibition", "setting": "[3]; Jack bean enzyme", "result": "−6.65", "unit": "%"}, {"measurement": "% inhibition", "setting": "α-D-glucosidase [4]", "result": 97.37, "unit": "%"}, {"measurement": "% inhibition", "setting": "α-D-galactosidase", "result": 6.95, "unit": "%"}, {"measurement": "% inhibition", "setting": "β-D-glucosidase", "result": 96.61, "unit": "%"}, {"measurement": "% inhibition", "setting": "β-D-mannosidase", "result": 93.34, "unit": "%"}, {"measurement": "% inhibition", "setting": "β-D-galactosidase", "result": 98.75, "unit": "%"}, {"measurement": "glucosidase inhibition (in words)", "setting": "glucosidases", "result": "expected strong inhibition of various glucosidases"}]}
